{"source": "patent US10632209B2", "about": "“ASH1L inhibitors and methods of treatment therewith” (The Regents of the University of Michigan, priority 2017, dated 2020)", "key": {"[1]": {"test_system": "MOLM13", "assay": "MTT cell viability assay, MOLM13", "assay_type": "cell-based, Human", "conditions": "MOLM13, 14 days of treatment", "description": "(§1) Human leukemia cells were plated at 1×10^5 cells/ml in 24-well plates, treated with 0.25% DMSO or compounds and cultured at 37° C. for 7-14 days. Every four days, the volume corresponding to 1×10^5 cells of DMSO-treated cells was spun down and resuspended in fresh media with fresh compound. At day 0 and each four day interval, 100 μl aliquots of the cell suspension were transferred to 96-well plates in quadruplicates. The quadruplicate samples were incubated for 4 days at 37° C., and then an MTT cell proliferation assay kit (Roche) was used to measure viable cells. Absorbance was read at 570 nm using a PHERAstar (BMG) microplate reader."}, "[2]": {"test_system": "KOPN8", "assay": "MTT cell viability assay, KOPN8", "assay_type": "cell-based, Human", "conditions": "KOPN8, 14 days of treatment", "description": "as §1"}, "[3]": {"test_system": "MV4;11 cells", "assay": "Differentiation of MV4;11 cells (Cytospin/Wright-Giemsa staining)", "assay_type": "cell-based, Human", "conditions": "7 days of treatment", "description": "Cytospin/Wrigtht-Giemsa Staining\n1×10^5 of MV4;11 cells treated with compounds or DMSO were harvested and placed in a Shandon EZ Single Cytofunnel (Thermo Fisher). Samples were centrifuged at 600 rpm for 5 min. The slides were air dried before staining with a Hema-3 kit (Thermo Fisher)."}, "[4]": {"test_system": "MLL fusion target genes (HOXA genes, MEIS1, MEF2C), MNDA", "assay": "Quantitative RT-PCR of MLL fusion target genes and MNDA", "assay_type": "cell-based", "conditions": "dose-dependent manner", "description": "Total RNA was extracted from cells using the RNeasy mini kit (QIAGEN), and then 100-2000 ng of total RNA was reverse transcribed using the High Capacity cDNA Reverse Transcription Kit (Applied Biosystems) according to the manufacturer's protocol. Real-time PCR was performed using a CFX96 Real-Time PCR Detection System (Biorad). TaqMan Gene Expression Master Mix and TaqMan Gene Expression Assays were purchased from Thermo Fisher. Relative quantification of each gene transcript was carried out using the ΔΔCt method as described in the Biorad Real-Time PCR Applications Guide."}, "[5]": {"test_system": "normal human hematopoietic hCD34+ cells", "assay": "Toxicity to normal hematopoietic hCD34+ cells", "assay_type": "cell-based"}, "[6]": {"test_system": "MV4;11", "assay": "MTT cell viability assay, MV4;11", "assay_type": "cell-based, Human", "conditions": "MV4;11, 14 days of treatment", "description": "as §1"}, "[7]": {"test_system": "SEM cells", "assay": "MTT cell viability assay, SEM", "assay_type": "cell-based, Human", "conditions": "14 days of treatment", "description": "as §1"}, "[8]": {"test_system": "K562 (CML cell line)", "assay": "MTT cell viability assay, K562 control cell line", "assay_type": "cell-based, Human", "conditions": "14 days of treatment", "description": "as §1"}, "[9]": {"molecular_target": "T1, ASH1L SET-BAH construct (amino acids 2069-2833) (Homo sapiens, UniProt Q9NR48)", "T1 construct": "ASH1L SET-BAH construct (amino acids 2069-2833); His tag (implied only by nickel-NTA purification); made in house; host or cells: E. coli BL21(DE3) T1R", "assay": "ASH1L histone methyltransferase (HMT) assay", "assay_type": "biochemical", "conditions": "read-out: IC50 value measured in histone methyltransferase (HMT) assay", "description": "ASH1L SET protein was expressed as MOCR fusion proteins in E. coli BL21(DE3) T1R cells at 22° C. Transformed cells were lysed in buffer A containing 50 mM Tris (pH 7.5), 500 mM NaCl, 1 mM tris(2-carboxyethyl)phosphine (TCEP), and 20 mM imidazole. Cell debris was pelleted by centrifugation, and the supernatant was loaded on a column packed with nickel-nitrilotriacetic acid beads. The column was washed with buffer A and protein eluted with a 100 mL linear gradient up to buffer A containing 500 mM imidazole. The MOCR tag was cleaved with tobacco etch virus (TEV) protease during overnight dialysis against 50 mM Tris (pH 7.5), 100 mM NaCl, and 1 mM TCEP. Cleaved ASH1L was isolated from MOCR by repeating the nickel column purification and collecting ASH1L in the flow-through and low-imidazole fractions. ASH1L was further purified by gel filtration chromatography using a Superdex-75 column running in buffer B containing 50 mM Tris (pH 7.5), 100 mM NaCl, and 1 mM TCEP. ASH1L SET-PHD and SET-BAH proteins were purified similarly, with the following differences. […]\nChicken mono/dinucleosomes (HMT-35-179), chicken oligo nucleosomes (HMT-35-177), and HeLa nucleosomes (HMT-35-123) were purchased from Reaction Biology. […] The P81 squares were then dried for 1 h, added to 10 mL of Ultima Gold scintillation cocktail (PerkinElmer), and analyzed using a Beckman scintillation counter."}, "[10]": {"test_system": "MV4;11 xenotransplantation mouse models of MLL leukemia", "assay": "MV4;11 xenotransplantation mouse model of MLL leukemia", "assay_type": "in vivo, mice", "conditions": "i.p.", "description": "Immunocompromised 8-10 week-old female NSG mice were used for in vivo efficacy studies in accordance with IACUC guidelines. Luciferase expressing human MV4;11 leukemia cells (MV4;11-luc) were engrafted intravenously via tail vein injection (1×10^7 cells/animal). Five days after transplantation mice were randomly assigned to a vehicle control or a compound treatment group (6-7 animals per group). […] Body weight was measured daily, while mean luminescence signal was measured at days 6, 13 and 19 post-transplantation in all mice. […]"}}}
{"smiles": "CC1CN(S(C)(=O)=O)CCC1n1cc(-c2cccc(C(N)=S)c2)c2ccc(N)cc21", "note": "(centres unmarked) [Compound 22]", "values": [{"measurement": "growth inhibition / proliferation, MTT assay", "setting": "[1]", "value": "growth inhibition"}, {"measurement": "growth inhibition / proliferation, MTT assay", "setting": "[2]", "value": "growth inhibition"}, {"measurement": "differentiation in MV4;11 cells", "setting": "[3]", "value": "induces differentiation"}, {"measurement": "expression level of MNDA differentiation marker", "setting": "[4]", "value": "increase the expression level"}, {"measurement": "expression of MLL fusion target genes (HOXA genes, MEIS1, MEF2C)", "setting": "[4]", "value": "downregulates expression"}, {"measurement": "toxicity to normal human hematopoietic hCD34+ cells", "setting": "[5]", "value": "not toxic"}]}
{"smiles": "CC(C)S(=O)(=O)N1CCC(n2cc(-c3cccc(C(N)=S)c3)c3ccc(CNc4nnc(N)s4)cc32)CC1", "note": "[Compound 34]", "values": [{"measurement": "growth inhibition / proliferation, MTT assay", "setting": "[1]", "value": "inhibits proliferation"}, {"measurement": "growth inhibition / proliferation, MTT assay", "setting": "[2]", "value": "inhibits proliferation"}, {"measurement": "proliferation, MTT cell viability assay", "setting": "[6]", "value": "inhibits proliferation"}, {"measurement": "proliferation, MTT cell viability assay", "setting": "[7]", "value": "inhibits proliferation"}, {"measurement": "proliferation, MTT cell viability assay", "setting": "[8]", "value": "but not control cell line K562"}]}
{"smiles": "COCCC(=O)Nc1ccc2c(-c3cccc(C(N)=S)c3)cn(C3CCN(S(C)(=O)=O)CC3)c2c1", "note": "[Compound 37]", "values": [{"measurement": "IC50", "setting": "[9]", "value": 750, "unit": "nM"}]}
{"smiles": "Cl.NC(=S)c1cccc(-c2cn(C3CCN(S(=O)(=O)C(F)(F)F)CC3)c3cc(CNC(=O)C4CNC4)ccc23)c1", "note": "[Compound 59, N-((3-(3-carbamothioylphenyl)-1-(1-((trifluoromethyl)sulfonyl)piperidin-4-yl)-1H-indol-6-yl)methyl)azetidine-3-carboxamide hydrochloride salt]", "values": [{"measurement": "leukemia progression, bioluminescence level in mice", "setting": "[10]; 7 days of treatment, 40 mg/kg, q.d.", "value": "slows down leukemia progression"}, {"measurement": "leukemia progression, flow cytometry of hCD45+ cells in spleen", "setting": "[10]; 21 days of treatment, 25 mg/kg, b.i.d.", "value": "inhibits leukemia progression"}]}
